System: MV-4-11 cells
Experiment: Gene expression microarray analysis (Affymetrix PrimeView) and GSEA
Assay type: cell-based, human
Design: RFU PODN (11730768_x_at) / Fold change /veh PODN (11730768_x_at) / RFU LINC00158 (11744669_a_at) / Fold change /veh LINC00158 (11744669_a_at) / RFU DUSP10 (11751237_a_at) / Fold change /veh DUSP10 (11751237_a_at) / RFU ID3 (11757404_x_at) / Fold change /veh ID3 (11757404_x_at) / RFU PLEKHG5 (11737974_s_at) / Fold change /veh PLEKHG5 (11737974_s_at) / RFU LRRC4B (11730491_at) / Fold change /veh LRRC4B (11730491_at) / RFU GIMAP4 (11747438_a_at) / Fold change /veh GIMAP4 (11747438_a_at) / RFU KRT8 (11758183_x_at) / Fold change /veh KRT8 (11758183_x_at) / RFU CNN1 (11734310_a_at) / Fold change /veh CNN1 (11734310_a_at) / RFU VPS37D (11726825_at) / Fold change /veh VPS37D (11726825_at) / RFU C10orf10 (11716522_x_at) / Fold change /veh C10orf10 (11716522_x_at) / RFU KIR2DL2 /// KIR2DL4 /// KIR2DL5A /// KIR2DL5B /// KIR2DS1 /// KIR2DS2 /// KIR2DS3 /// KIR2DS4 /// KIR3DL3 /// KIR3DL3 /// KIR3DS1 (11738374_at) / Fold change /veh KIR2DL2 /// KIR2DL4 /// KIR2DL5A /// KIR2DL5B /// KIR2DS1 /// KIR2DS2 /// KIR2DS3 /// KIR2DS4 /// KIR3DL3 /// KIR3DL3 /// KIR3DS1 (11738374_at) / RFU C1QL1 (11718748_at) / Fold change /veh C1QL1 (11718748_at) / RFU TMPRSS4 (11747572_a_at) / Fold change /veh TMPRSS4 (11747572_a_at) / RFU HAMP (11756126_x_at) / Fold change /veh HAMP (11756126_x_at) / RFU RNFT2 (11725882_a_at) / Fold change /veh RNFT2 (11725882_a_at) / RFU NR4A2 (11747474_a_at) / Fold change /veh NR4A2 (11747474_a_at) / RFU ABCC12 (11746883_a_at) / Fold change /veh ABCC12 (11746883_a_at) / RFU TMEM136 (11760407_x_at) / Fold change /veh TMEM136 (11760407_x_at) / RFU CLDN22 /// WWC2 (11732394_at) / Fold change /veh CLDN22 /// WWC2 (11732394_at) / RFU HLA-DPB1 (11760878_x_at) / Fold change /veh HLA-DPB1 (11760878_x_at) / RFU SPINT1 (11716480_a_at) / Fold change /veh SPINT1 (11716480_a_at) / RFU GAP43 (11754022_s_at) / Fold change /veh GAP43 (11754022_s_at) / RFU A4GNT (11735810_at) / Fold change /veh A4GNT (11735810_at) / RFU PRB3 (11715151_x_at) / Fold change /veh PRB3 (11715151_x_at) / RFU TUBB4B (11761932_at) / Fold change /veh TUBB4B (11761932_at) / RFU CAPN14 (11732068_a_at) / Fold change /veh CAPN14 (11732068_a_at) / RFU TMCC2 (11721928_a_at) / Fold change /veh TMCC2 (11721928_a_at) / RFU IRGQ (11745062_a_at) / Fold change /veh IRGQ (11745062_a_at) / RFU FAM174B (11720279_a_at) / Fold change /veh FAM174B (11720279_a_at) / RFU TMPRSS4 (11748680_a_at) / Fold change /veh TMPRSS4 (11748680_a_at) / RFU FAM212B (11763350_a_at) / Fold change /veh FAM212B (11763350_a_at) / RFU PLEKHG5 (11743358_a_at) / Fold change /veh PLEKHG5 (11743358_a_at) / RFU ZSCAN30 (11745921_a_at) / Fold change /veh ZSCAN30 (11745921_a_at) / RFU CMKLR1 (11741424_a_at) / Fold change /veh CMKLR1 (11741424_a_at) / RFU LOC101060620 /// MAPK8IP1 (11723275_at) / Fold change /veh LOC101060620 /// MAPK8IP1 (11723275_at) / RFU SPTSSB (11747773_x_at) / Fold change /veh SPTSSB (11747773_x_at) / RFU PRSS12 (11739890_at) / Fold change /veh PRSS12 (11739890_at) / RFU BIN1 (11741810_x_at) / Fold change /veh BIN1 (11741810_x_at) / RFU WNT11 (11732464_a_at) / Fold change /veh WNT11 (11732464_a_at) / RFU C10orf10 (11716521_a_at) / Fold change /veh C10orf10 (11716521_a_at) / RFU C5orf56 (11738089_at) / Fold change /veh C5orf56 (11738089_at) / RFU CYB561 (11721691_x_at) / Fold change /veh CYB561 (11721691_x_at) / RFU ANKRD19P (11752326_a_at) / Fold change /veh ANKRD19P (11752326_a_at) / RFU OR2T12 /// OR2T33 /// OR2T8 (11738714_s_at) / Fold change /veh OR2T12 /// OR2T33 /// OR2T8 (11738714_s_at) / RFU VCAN (11748164_a_at) / Fold change /veh VCAN (11748164_a_at) / RFU JSRP1 (11732532_at) / Fold change /veh JSRP1 (11732532_at) / RFU KRTAP10-11 (11738290_x_at) / Fold change /veh KRTAP10-11 (11738290_x_at) / RFU MYO3A (11730013_a_at) / Fold change /veh MYO3A (11730013_a_at) / RFU EBF3 (11725865_a_at) / Fold change /veh EBF3 (11725865_a_at) / RFU CAMK2N1 (11719241_x_at) / Fold change /veh CAMK2N1 (11719241_x_at) / RFU C5orf56 (11738088_a_at) / Fold change /veh C5orf56 (11738088_a_at) / RFU OLFML3 (11715873_a_at) / Fold change /veh OLFML3 (11715873_a_at) / RFU LOC100653217 /// NTM (11731650_a_at) / Fold change /veh LOC100653217 /// NTM (11731650_a_at) / RFU MAPK11 (11762145_a_at) / Fold change /veh MAPK11 (11762145_a_at) / RFU FIZ1 (11724087_x_at) / Fold change /veh FIZ1 (11724087_x_at) / RFU OASL (11726364_x_at) / Fold change /veh OASL (11726364_x_at) / RFU SOX15 (11748057_x_at) / Fold change /veh SOX15 (11748057_x_at) / RFU CD79A (11719716_a_at) / Fold change /veh CD79A (11719716_a_at) / RFU HIST1H1D (11736915_at) / Fold change /veh HIST1H1D (11736915_at) / RFU CASKIN2 (11723855_a_at) / Fold change /veh CASKIN2 (11723855_a_at) / RFU LOC730098 (11760151_x_at) / Fold change /veh LOC730098 (11760151_x_at) / RFU OR4N2 (11742367_at) / Fold change /veh OR4N2 (11742367_at) / RFU PRRT2 (11749266_a_at) / Fold change /veh PRRT2 (11749266_a_at) / RFU SNX32 (11753110_a_at) / Fold change /veh SNX32 (11753110_a_at) / RFU CDHR5 (11726645_a_at) / Fold change /veh CDHR5 (11726645_a_at) / RFU RCAN1 (11760418_a_at) / Fold change /veh RCAN1 (11760418_a_at) / RFU FAM167A (11723789_a_at) / Fold change /veh FAM167A (11723789_a_at) / RFU FAM26E (11764081_at) / Fold change /veh FAM26E (11764081_at) / RFU ISYNA1 (11749810_s_at) / Fold change /veh ISYNA1 (11749810_s_at) / RFU ACY1 (11761880_at) / Fold change /veh ACY1 (11761880_at) / RFU 11764098_at / Fold change /veh 11764098_at / RFU SAMD14 (11745864_x_at) / Fold change /veh SAMD14 (11745864_x_at) / RFU NPB (11741838_a_at) / Fold change /veh NPB (11741838_a_at) / RFU TMPRSS6 (11731388_a_at) / Fold change /veh TMPRSS6 (11731388_a_at) / RFU KRTAP10-2 (11738614_at) / Fold change /veh KRTAP10-2 (11738614_at) / RFU ARHGAP8 /// PRR5-ARHGAP8 (11727945_x_at) / Fold change /veh ARHGAP8 /// PRR5-ARHGAP8 (11727945_x_at) / RFU KRTAP5-7 /// NADSYN1 (11734609_at) / Fold change /veh KRTAP5-7 /// NADSYN1 (11734609_at) / RFU RASL12 (11751679_a_at) / Fold change /veh RASL12 (11751679_a_at) / RFU CDKN2B (11736163_a_at) / Fold change /veh CDKN2B (11736163_a_at) / RFU PRF1 (11729649_at) / Fold change /veh PRF1 (11729649_at) / RFU, ZNF638 /// ZNF638-IT1 / Fold change vs veh, ZNF638 /// ZNF638-IT1 / RFU, PANK3 / Fold change vs veh, PANK3 / RFU, SH3YL1 / Fold change vs veh, SH3YL1 / RFU, ZEB2 / Fold change vs veh, ZEB2 / RFU, NRIP1 / Fold change vs veh, NRIP1 / RFU, PTTG1IP / Fold change vs veh, PTTG1IP / RFU, CAPN2 / Fold change vs veh, CAPN2 / RFU, MED14 / Fold change vs veh, MED14 / RFU, SNORA58 / Fold change vs veh, SNORA58 / RFU, C1orf63 / Fold change vs veh, C1orf63 / RFU, LRRFIP1 / Fold change vs veh, LRRFIP1 / RFU, NDUFAF7 / Fold change vs veh, NDUFAF7 / RFU, SLC12A2 / Fold change vs veh, SLC12A2 / RFU, IBTK / Fold change vs veh, IBTK / RFU, ESF1 / Fold change vs veh, ESF1 / Fold change vs veh, TMEM50B / RFU, TAOK1 / Fold change vs veh, TAOK1 / RFU, ACBD3 / Fold change vs veh, ACBD3 / RFU, TMA16 / Fold change vs veh, TMA16 / RFU, RWDD3 / Fold change vs veh, RWDD3 / RFU, BCAT1 / Fold change vs veh, BCAT1 / RFU, EDEM3 / Fold change vs veh, EDEM3 / RFU, TMEM33 / Fold change vs veh, TMEM33 / RFU, WDR75 / Fold change vs veh, WDR75 / RFU, AHCTF1 / Fold change vs veh, AHCTF1 / RFU, TFRC / Fold change vs veh, TFRC / RFU, ZDHHC17 / Fold change vs veh, ZDHHC17 / RFU, NOM1 / Fold change vs veh, NOM1 / RFU, ARL8B / Fold change vs veh, ARL8B / RFU, ZBTB11 / Fold change vs veh, ZBTB11 / RFU, TAMM41 / Fold change vs veh, TAMM41 / RFU, KIAA1704 /// LOC100996395 / Fold change vs veh, KIAA1704 /// LOC100996395 / RFU, ING1 / Fold change vs veh, ING1 / RFU, TRMT61B / Fold change vs veh, TRMT61B / RFU, FUBP3 / Fold change vs veh, FUBP3 / RFU, TP53 / Fold change vs veh, TP53 / RFU, TNKS2 / Fold change vs veh, TNKS2 / RFU, ZFP14 / Fold change vs veh, ZFP14 / RFU, ACTR2 / Fold change vs veh, ACTR2 / RFU, PPP3R1 / Fold change vs veh, PPP3R1 / RFU, PIK3R1 / Fold change vs veh, PIK3R1 / RFU, HNRNPA1 / Fold change vs veh, HNRNPA1 / RFU, RNF170 / Fold change vs veh, RNF170 / RFU, ZNF28 / Fold change vs veh, ZNF28 / RFU, RNGTT / Fold change vs veh, RNGTT / RFU, OGT / Fold change vs veh, OGT / RFU, BRD1 / Fold change vs veh, BRD1 / RFU, MARS / Fold change vs veh, MARS / RFU, ZNF655 / Fold change vs veh, ZNF655 / RFU, FAHD1 / Fold change vs veh, FAHD1 / RFU, BDP1 / Fold change vs veh, BDP1 / RFU, LRRCC1 / Fold change vs veh, LRRCC1 / RFU, ARID1A / Fold change vs veh, ARID1A / RFU, ZNF146 / Fold change vs veh, ZNF146 / RFU, ZNF330 / Fold change vs veh, ZNF330 / RFU, GPN3 / Fold change vs veh, GPN3 / RFU, C9orf123 / Fold change vs veh, C9orf123 / RFU, N4BP2L2 / Fold change vs veh, N4BP2L2 / RFU, ARFIP1 / Fold change vs veh, ARFIP1 / RFU, FAM179B / Fold change vs veh, FAM179B / RFU, BCL10 / Fold change vs veh, BCL10 / RFU, UHRF1BP1L / Fold change vs veh, UHRF1BP1L / RFU, BET1 / Fold change vs veh, BET1 / RFU, CNOT2 / Fold change vs veh, CNOT2 / RFU, ZNF268 / Fold change vs veh, ZNF268 / Fold change vs veh, ZNF507 / RFU, DGCR2 / Fold change vs veh, DGCR2 / RFU, WDSUB1 / Fold change vs veh, WDSUB1 / Fold change vs veh, HSP90B1 /// MIR3652 / RFU, ADSS / Fold change vs veh, ADSS / RFU, GK / Fold change vs veh, GK / RFU, ZNF148 / Fold change vs veh, ZNF148 / RFU, TAF9 / Fold change vs veh, TAF9 / RFU, SLC1A5 / Fold change vs veh, SLC1A5 / RFU, SLMO2 / Fold change vs veh, SLMO2 / RFU, ABCC4 / Fold change vs veh, ABCC4 / RFU, LOC101060439 /// RAP1B / Fold change vs veh, LOC101060439 /// RAP1B / RFU, RFX7 / Fold change vs veh, RFX7 / RFU, GTPBP10 / Fold change vs veh, GTPBP10 / RFU, CNEP1R1 / Fold change vs veh, CNEP1R1 / RFU, BIVM-ERCC5 /// ERCC5 / Fold change vs veh, BIVM-ERCC5 /// ERCC5 / RFU, ILF3 / Fold change vs veh, ILF3 / RFU 11762660_at / Fold change /veh 11762660_at / RFU VCAN (11757783_s_at) / Fold change /veh VCAN (11757783_s_at) / RFU DDX43 (11728927_at) / Fold change /veh DDX43 (11728927_at) / RFU KRT8 (11758188_x_at) / Fold change /veh KRT8 (11758188_x_at) / RFU NKD1 (11759106_at) / Fold change /veh NKD1 (11759106_at) / RFU SRD5A1 (11742802_a_at) / Fold change /veh SRD5A1 (11742802_a_at) / RFU TPSAB1 /// TPSB2 (11721975_s_at) / Fold change /veh TPSAB1 /// TPSB2 (11721975_s_at) / RFU GSTM3 (11746129_a_at) / Fold change /veh GSTM3 (11746129_a_at) / RFU IL23R (11737362_x_at) / Fold change /veh IL23R (11737362_x_at) / RFU TMEM51 (11727254_a_at) / Fold change /veh TMEM51 (11727254_a_at) / RFU PIWIL2 (11732686_x_at) / Fold change /veh PIWIL2 (11732686_x_at) / RFU ORM1 (11744905_x_at) / Fold change /veh ORM1 (11744905_x_at) / RFU CCDC152 (11743942_at) / Fold change /veh CCDC152 (11743942_at) / RFU ECM1 (11717891_a_at) / Fold change /veh ECM1 (11717891_a_at) / RFU IL23R (11748794_a_at) / Fold change /veh IL23R (11748794_a_at) / RFU TNFAIP8L3 (11732012_x_at) / Fold change /veh TNFAIP8L3 (11732012_x_at) / RFU MBOAT4 (11741988_at) / Fold change /veh MBOAT4 (11741988_at) / RFU 11764193_at / Fold change /veh 11764193_at / RFU TMEM53 (11763286_at) / Fold change /veh TMEM53 (11763286_at) / RFU MAGEB2 (11727129_at) / Fold change /veh MAGEB2 (11727129_at) / RFU TMEM200A (11744735_a_at) / Fold change /veh TMEM200A (11744735_a_at) / RFU CCDC152 (11751479_a_at) / Fold change /veh CCDC152 (11751479_a_at) / RFU FAM211A (11726209_a_at) / Fold change /veh FAM211A (11726209_a_at) / RFU RGS16 (11746705_a_at) / Fold change /veh RGS16 (11746705_a_at) / RFU VCAN (11755009_s_at) / Fold change /veh VCAN (11755009_s_at) / RFU RHOB (11743442_s_at) / Fold change /veh RHOB (11743442_s_at) / RFU RGS16 (11720943_a_at) / Fold change /veh RGS16 (11720943_a_at) / RFU RGS16 (11720944_at) / Fold change /veh RGS16 (11720944_at) / RFU, VPS4B / Fold change vs veh, VPS4B / RFU, CREB1 / Fold change vs veh, CREB1 / RFU, DNAJC13 / Fold change vs veh, DNAJC13 / RFU, GNAQ / Fold change vs veh, GNAQ / RFU, CDK5R1 / Fold change vs veh, CDK5R1 / RFU, ZRANB3 / Fold change vs veh, ZRANB3 / RFU, CUL4A / Fold change vs veh, CUL4A / RFU, CCNY / Fold change vs veh, CCNY / RFU, UFL1 / Fold change vs veh, UFL1 / RFU, COG3 / Fold change vs veh, COG3 / RFU, DIAPH2 / Fold change vs veh, DIAPH2 / RFU, SKA2 / Fold change vs veh, SKA2 / RFU, AFF3 / Fold change vs veh, AFF3 / RFU, LMF1 / Fold change vs veh, LMF1 / RFU, IPO11 / Fold change vs veh, IPO11 / RFU, DFFB / Fold change vs veh, DFFB / RFU, FOXP1 / Fold change vs veh, FOXP1 / RFU, CARD8 / Fold change vs veh, CARD8 / RFU, STRN3 / Fold change vs veh, STRN3 / RFU, ADK / Fold change vs veh, ADK / RFU, RASSF2 / Fold change vs veh, RASSF2 / RFU, WIPF1 / Fold change vs veh, WIPF1 / RFU, LARP1B / Fold change vs veh, LARP1B / RFU, RASA1 / Fold change vs veh, RASA1 / RFU, RB1 / Fold change vs veh, RB1 / RFU, PPFIA1 / Fold change vs veh, PPFIA1 / RFU, MAT2A / Fold change vs veh, MAT2A / RFU, CCT5 / Fold change vs veh, CCT5 / RFU, WDR92 / Fold change vs veh, WDR92 / RFU, CUX1 / Fold change vs veh, CUX1 / RFU, TTC7A / Fold change vs veh, TTC7A / RFU, TMEM135 / Fold change vs veh, TMEM135 / RFU, DEPTOR / Fold change vs veh, DEPTOR / RFU, CPM / Fold change vs veh, CPM / RFU, DNAJB6 / Fold change vs veh, DNAJB6 / RFU, CACNA2D3 / Fold change vs veh, CACNA2D3 / RFU, DTX4 / Fold change vs veh, DTX4 / RFU, TFCP2 / Fold change vs veh, TFCP2 / RFU, GMCL1 /// GMCL1P1 / Fold change vs veh, GMCL1 /// GMCL1P1 / RFU, AEBP2 / Fold change vs veh, AEBP2 / RFU, SNHG1 /// SNORD22 /// SNORD25 /// SNORD26 /// SNORD27 /// SNORD28 /// SNORD29 /// SNORD31 / Fold change vs veh, SNHG1 /// SNORD22 /// SNORD25 /// SNORD26 /// SNORD27 /// SNORD28 /// SNORD29 /// SNORD31 / Fold change (Aza/veh), C12orf56 (ProbeSet 11735607_a_at) / Fold change (ACY-1035/veh), C12orf56 (ProbeSet 11735607_a_at) / Fold change (Aza/veh), FGFR1OP (ProbeSet 11751329_s_at) / Fold change (ACY-1035/veh), FGFR1OP (ProbeSet 11751329_s_at) / Fold change (Aza/veh), VPS36 (ProbeSet 11739960_a_at) / Fold change (ACY-1035/veh), VPS36 (ProbeSet 11739960_a_at) / RFU SYPL1 (11715823_x_at) / Fold change /veh SYPL1 (11715823_x_at) / RFU IGFBP7 (11715501_s_at) / Fold change /veh IGFBP7 (11715501_s_at) / RFU REEP3 (11722064_at) / Fold change /veh REEP3 (11722064_at) / RFU IGLL1 (11728026_x_at) / Fold change /veh IGLL1 (11728026_x_at): dose or concentration left out as unconfirmed
Conditions: ProbeSet 11732433_s_at; LIST B

For `Nc1ccc(-c2cccs2)cc1NC(=O)c1ccc2c(c1)cc(C1CC1)n2CCN1CCOCC1` [ACY-1035], the “RFU, GK” value was 305.66 RFU.

From article PMC5218480 (PLoS ONE, 2017)
